Where “and” joins values, the source holds several entries; their conditions need not be identical. Identical values can stand only once.
Columns and labels:
[1] = test system: PC3-pip cells; assay: Cellular processing and internalization (acid wash method); type: cell-based, human; conditions: 2 nM, after 24 h of continuous incubation at 37°C
Protocol: Internalization of radiolabeled PSMA binders was evaluated using an acid wash method ([21]). PC3-pip cells were incubated with 2 nM of [^177Lu]Lu-BQ7876 or [^177Lu]Lu-PSMA-617 in RPMI medium at 37°C (5% of CO2). At predetermined time points (1, 2, 6 and 24 h), cells were treated with 0.5 mL of 4 M urea solution in a 0.2 M glycine buffer, pH 2.5, for 5 minutes on ice. After that, the acidic supernatant was collected and this fraction was considered to be a membrane-bound activity. To lyse the cells, 0.5 mL of 1 M sodium hydroxide solution was added and incubated at 37°C for at least 20 min. Alkaline-containing solution was collected, and the basic fraction was considered to be an internalized activity. Samples were measured using gamma-counter.

[2] = target: T1, PSMA-expressing PC3-pip cells (Homo sapiens, UniProt Q04609); assay: In vitro binding specificity test (PSMA saturation with unlabeled compound); conditions: 1 nM radiolabeled compound, 100-fold molar excess unlabeled, 1 h 37°C
T1 construct: expressed in transfected cells; host or cells: PC3-pip (PSMA-transfected PC-3 human prostate cancer cells), provided by Prof; M. Pomper, Johns Hopkins University
T1 sequence (Q04609 whole entry): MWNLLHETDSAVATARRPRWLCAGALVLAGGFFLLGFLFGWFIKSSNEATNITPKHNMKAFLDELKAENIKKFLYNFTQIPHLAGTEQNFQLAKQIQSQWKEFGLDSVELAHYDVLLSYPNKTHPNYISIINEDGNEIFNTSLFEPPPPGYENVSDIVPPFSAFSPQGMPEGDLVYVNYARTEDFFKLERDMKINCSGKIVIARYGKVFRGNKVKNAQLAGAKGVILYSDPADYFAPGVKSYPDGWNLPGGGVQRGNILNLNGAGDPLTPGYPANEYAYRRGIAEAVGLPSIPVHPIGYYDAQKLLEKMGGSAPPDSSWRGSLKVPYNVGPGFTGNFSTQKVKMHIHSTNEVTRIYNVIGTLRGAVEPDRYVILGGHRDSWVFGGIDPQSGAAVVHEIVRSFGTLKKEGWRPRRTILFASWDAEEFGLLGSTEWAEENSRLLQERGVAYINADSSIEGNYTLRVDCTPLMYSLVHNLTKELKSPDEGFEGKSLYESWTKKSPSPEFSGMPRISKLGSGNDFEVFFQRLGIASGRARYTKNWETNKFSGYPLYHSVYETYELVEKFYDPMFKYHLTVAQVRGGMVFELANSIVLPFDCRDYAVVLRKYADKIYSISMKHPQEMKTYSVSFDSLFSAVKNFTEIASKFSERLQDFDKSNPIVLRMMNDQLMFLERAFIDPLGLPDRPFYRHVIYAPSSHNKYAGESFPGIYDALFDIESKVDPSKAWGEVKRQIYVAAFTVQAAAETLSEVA
Protocol: The human prostate cancer cell line PC-3 was purchased from the American Type Culture Collection (ATCC; LGC Promochem, Borås, Sweden). The cells were cultured in Roswell Park Memorial Institute (RPMI) 1640 medium supplemented with 10% fetal bovine serum (FBS), 2 mM L-glutamine, penicillin 100 IU/mL and 100 µg/mL streptomycin at 37°C and 5% CO2 atmosphere. The PSMA-transfected and overexpressing variant of PC3 cell line, PC3-pip, was provided by Prof. M. Pomper, Department of Radiology, the Johns Hopkins University, Baltimore, MD, US. PC3-pip cells were cultured in two types of RPMI media. The first one contained 20% fetal bovine serum, 1% of L-glutamine (5 mL) and 1% of PEST (penicillin and streptomycin 5 mL). The second one contained 20% fetal bovine serum, 1% of L-glutamine (5 mL) and 1% of PEST (penicillin and streptomycin 5 mL) and 10 μg/mL of pyramycin. The second media is used every second passage to maintain clone selection. All in vitro experiments were performed in triplicates. For a typical experiment, cells were seeded one day before the experiment in Petri dishes (35 mm) in the amount of 1×10^6 cell/dish.
[…] specificity was tested using a saturation method. Before the experiment, cells were washed with PBS solution. […] Cell-associated activity was measured using gamma-counter and presented as the percentage of added activity.

[3] = test system: PC3-pip xenografts; assay: Biodistribution in mice bearing PSMA-positive PC3-pip xenografts; type: in vivo, Balb/c nu/nu mice; conditions: 3 h p.i.; PC3-pip xenograft mice; n=4
Protocol: To prepare xenografts, PC3-pip and PC3 (PSMA-negative control) cells (10^7 cells in 100 μL of media) were subcutaneously injected in the hind legs of female Balb/c nu/nu mice. At the time of the experiment, the average mouse weight was 18 ± 2 g. The average tumor weight was 0.2 ± 0.1 g.
Biodistribution of [^177Lu]Lu-BQ7876 was determined at 1, 3, 24, 48 and 130 hours p.i. Mice were injected with [^177Lu]Lu-BQ7876 (280 kBq/mouse). The amount of substance was adjusted to 80 pmol/mouse using unlabeled substance. A group of four animals per data point was used. The labeled peptide was injected into the tail vein. Mice were anaesthetized by a lethal intraperitoneal injection of ketamine and xylazine mixture solution (the dose of ketamine was 250 mg/kg and the dose of xylazine was 25 mg/kg) and sacrificed. Mice were exsanguinated by heart puncture using a heparinized syringe under anaesthesia. Organs and tissues were excised and weighed, and the activity of each organ was measured. The percentage of injected dose per gram of sample (%ID/g) was calculated. Activity in the rest of the gastrointestinal tract was measured to estimate hepatobiliary excretion. The rest of the body was also collected and its activity was measured. […]

[4] = test system: PC3-pip xenografts; assay: microSPECT/CT imaging of mice bearing PC3-pip xenografts; type: in vivo, Balb/c nu/nu mice; conditions: 3 h pi, 80 pmol/mouse
Protocol: To confirm the biodistribution data, imaging of mice bearing PC3-pip xenografts was performed. The mice were injected with [^177Lu]Lu-BQ7876 (900 kBq/mouse, 80 pmol/mouse) or [^177Lu]Lu-PSMA-617 (1200 kBq/mouse, 80 pmol/mouse). Imaging was performed at 3 h pi using nanoScan SPECT/CT (Mediso Medical Imaging Systems, Hungary) according to the protocol describe earlier ([25]).

[5] = set-up: method as in Kuo et al. 2018; conditions: humans; extrapolated from mouse biodistribution; ref Kuo et al. 2018; cited from earlier work
[6] = target: T2, PSMA-expressing PC-3pip prostate cancer cells (Homo sapiens, UniProt Q04609); assay: Half-maximal inhibitory concentration: inhibition of [^111In]In-PSMA-617 binding; conditions: vs [^111In]In-PSMA-617 (1 nM); PC3-pip cells; 4°C, 4 hours
T2 construct: expressed in transfected cells; host or cells: PC3-pip (PSMA-transfected PC-3 human prostate cancer cells), provided by Prof; M. Pomper, Johns Hopkins University
T2 sequence (Q04609 whole entry): as above
Protocol: For the determination of a half-maximal inhibitory concentration (IC50), PSMA-617 was labeled with indium-111. For this purpose, 2 nmol PSMA-617 were dissolved in 40 µL 0.2 M ammonium acetate, pH 5.5, and 12 µL (10 MBq) of [^111In]InCl3 solution in 0.01 M HCl was added. The mixture was vortexed and incubated at 85 °C for 30 min. The yield was determined using iTLC eluted with 0.2 M citric acid, pH 2.0. Since the radiochemical yield was over 98%, [^111In]In-PSMA-617 was used in further experiments without purification.
For determination of IC50, BQ7876 and PSMA-617 were loaded with non-radioactive Lu of natural isotopic composition (^natLu) by incubation with a three-fold molar excess of ^natLuCl3 at 85 °C for 30 min in 0.2 M ammonium acetate, pH 5.5. Cells were washed with a PBS solution and incubated at 4°C for 4 hours with [^111In]In-PSMA-617 (1 nM) in the presence of increasing concentrations (range 0 to 2 μM) of competitors, ^natLu-BQ7876 or ^natLu-PSMA-617. Thereafter, cells were detached, collected, and cell-associated activity was measured using gamma-counter. The half-maximal inhibitory concentration was calculated using GraphPad software (version 9.3.1 for Windows, GraphPad Software, LLC. CA, USA).

For O=C(O)CC[C@H](NC(=O)N[C@@H](CCCCNC(=O)[C@H](Cc1ccc2ccccc2c1)NC(=O)[C@H]1CC[C@H](CNC(=O)CN2CCN(CC(=O)O)CCN(CC(=O)O)CCN(CC(=O)O)CC2)CC1)C(=O)O)C(=O)O [PSMA-617], the “internalized fraction of the total cell-associated activity” value [1] was 10.0 ± 2.9%.

With O=C([O-])CN1CCN(CC(=O)[O-])CCN(CC(=O)NC[C@H]2CC[C@H](C(=O)N[C@@H](Cc3ccc4ccccc4c3)C(=O)NCCCC[C@H](NC(=O)N[C@@H](CCC(=O)O)C(=O)O)C(=O)O)CC2)CCN(CC(=O)[O-])CC1.[111In+3] [[^111In]In-PSMA-617] the “Binding of labeled compound to cells after saturation of PSMA with large excess of unlabeled compound” value [2] was “highly significant (p< 5 x 10^-6) reduction of binding”.

With O=C([O-])CN1CCN(CC(=O)[O-])CCN(CC(=O)NC[C@H]2CC[C@H](C(=O)N[C@@H](Cc3ccc4ccccc4c3)C(=O)NCCCC[C@H](NC(=O)N[C@@H](CCC(=O)O)C(=O)O)C(=O)O)CC2)CCN(CC(=O)[O-])CC1.[177Lu+3] [[^177Lu]Lu-PSMA-617] the “Binding of labeled compound to cells after saturation of PSMA with large excess of unlabeled compound” value [2] was “highly significant (p< 5 x 10^-6) reduction of binding”, the Uptake in blood [3] was 0.06±0.02 %IA/g and the Uptake in bone [3] was 0.11±0.02 %IA/g. It also gave an Uptake in heart [3] of 0.08±0.07 %IA/g, an Uptake in kidney [3] of 9±3 %IA/g and an Uptake in liver [3] of 0.24±0.02 %IA/g. For the same compound, the Uptake in lung [3] was 0.21±0.07 %IA/g, the Uptake in muscle [3] was 0.07±0.02 %IA/g and the Uptake in pancreas [3] was 0.09±0.04 %IA/g. The “Uptake in salivary gland” value [3] was 0.12±0.04 %IA/g, the Uptake in spleen [3] was 0.5±0.3 %IA/g and the Uptake in tumor [3] was 12±3 %IA/g. The “Activity accumulation in microSPECT/CT imaging” value [4] was “accumulated avidly in tumors”, the “Absorbed dose, adrenals” value [5] was 7.64E-03 mGy/MBq and the “Absorbed dose, brain” value [5] was 4.32E-04 mGy/MBq. For the same compound, the “Absorbed dose, gallbladder wall” value [5] was 8.76E-04 mGy/MBq, the “Absorbed dose, heart wall” value [5] was 1.00E-03 mGy/MBq and the “Absorbed dose, kidneys” value [5] was 1.11E-01 mGy/MBq. The “Absorbed dose, liver” value [5] was 1.37E-03 mGy/MBq, the “Absorbed dose, lungs” value [5] was 1.81E-03 mGy/MBq and the “Absorbed dose, osteogenic cells” value [5] was 8.30E-04 mGy/MBq. For the same compound, the “Absorbed dose, pancreas” value [5] was 7.60E-04 mGy/MBq, the “Absorbed dose, prostate” value [5] was 1.17E-03 mGy/MBq and the “Absorbed dose, red marrow” value [5] was 7.59E-04 mGy/MBq. The “Absorbed dose, small intestine” value [5] was 1.72E-03 mGy/MBq, the “Absorbed dose, spleen” value [5] was 4.42E-03 mGy/MBq and the “Absorbed dose, stomach wall” value [5] was 1.69E-03 mGy/MBq. For the same compound, the “Absorbed dose, testes” value [5] was 1.05E-03 mGy/MBq, the “Absorbed dose, thymus” value [5] was 7.19E-04 mGy/MBq and the “Absorbed dose, thyroid” value [5] was 7.11E-04 mGy/MBq. The “Absorbed dose, total body” value [5] was 1.70E-03 mGy/MBq.

With O=C([O-])CN1CCN(CC(=O)[O-])CCN(CC(=O)NC[C@H]2CC[C@H](C(=O)N[C@@H](Cc3ccc4ccccc4c3)C(=O)NCCCC[C@H](NC(=O)N[C@@H](CCC(=O)O)C(=O)O)C(=O)O)CC2)CCN(CC(=O)[O-])CC1.[Lu+3] [^natLu-PSMA-617] the IC50 [6] was 61 nM and 60 nM.

Source: PMC10565663, “^177Lu-labeled PSMA targeting therapeutic with optimized linker for treatment of disseminated prostate cancer; evaluation of biodistribution and dosimetry” (Frontiers in Oncology, 2023)
